{"source": "patent US20090018111A1", "about": "“Novel Antimicrobial Medicament” (priority 2004, published 2009)", "test_in_all_cases": "Sensitivity test (agar dilution)", "key": {"S. aureus 209P": {"tested_on": "S. aureus 209P", "type": "cell-based, Staphylococcus aureus", "conditions": "for MIC: Staphylococcus aureus, 209P", "protocol": "(§1) The antibacterial activities were tested against various 18 bacteria (27 standard strains) which are representative bacteria caused clinically infectious disease (Staphylococcus aureus 3 strains, Staphylococcus epidermidis 1 strain, Micrococcus luteus 1 strain, Streptococcus pyogenes 1 strain, Enterococcus faecalis 1 strain, Enterococcus faecium 1 strain, Bacillus subtilis 1 strain, Escherichia coli 3 strains, Klebsiella pneumoniae 1 strain, Proteus mirabilis 1 strain, Proteus vulgaris 2 strains, Pseudomonas aeruginosa 3 strains, Serratia marcescens 2 strains, Enterobacter aerogenes 1 strain, Stenotrophomonas maltophilia 1 strain, Enterobacter cloacae 1 strain, Citrobacter freundii 1 strain, Moraxella catarrhalis 2 strains).\n(§2) According to the standard method of Japan Chemotherapeutic Society (Chemotherapy, vol. […], p 76-79 (1981)) the test was carried out using the agar dilution method. After dissolving test samples in distilled water, agar medium containing the test samples was prepared in such a manner that the final concentration became twice serial dilution by pouring serially diluted combination drug solution or a single drug solution into agar medium. As agar medium was used Mueller Hinton Agar medium (MHA). Then, each strain was cultivated over night at 37° C. in an incubator and suspended in buffered saline solution with gelatin (BSG) in the concentration of about 10^6 CFU/ml. The suspension (about 5 μl) containing test strains was inoculated to the medium containing the test samples by Micro Planter.\n(§3) When the sample is subjected to sensitivity test, this mixed solution was diluted by twice serial dilution method.\n(§4) Furthermore, when the drug is solely used, each test sample was used as it is, and diluted by twice serial dilution method from the maximum concentration to the minimum concentration.\n(§5) FIC index based on MIC value was calculated. […] Namely, when FIC index calculated by the following formula is equal or less than 1, the enhanced effect of the combination drug in said ratio is considered as positive. When FIC index is over 1, the enhanced effect of the combination drug in said ratio is considered as negative.\n(§6) Formula of FIC index: FIC index=(MIC of Drug A in combination/MIC of Drug A alone)+(MIC of Drug B in combination/MIC of Drug B alone) N.C. in tables means being not calculated."}, "E. aerogenes ATCC13048": {"tested_on": "E. aerogenes ATCC13048", "type": "cell-based, Enterobacter aerogenes", "conditions": "Klebsiella aerogenes", "protocol": "as §1, §2, §3, §4, §5, §6"}, "S. maltophilia IID1275": {"tested_on": "S. maltophilia IID1275", "type": "cell-based, Stenotrophomonas maltophilia", "conditions": "Stenotrophomonas maltophilia", "protocol": "as §1, §2, §3, §4, §5, §6"}, "B. subtilis ATCC6633": {"tested_on": "B. subtilis ATCC6633", "type": "cell-based, Bacillus subtilis", "conditions": "Bacillus subtilis", "protocol": "as §1, §2, §3, §4, §5, §6"}}, "note": "Where two headings read alike, the source gives them in different places.", "data": [{"smiles": "C[C@H]1C=C(c2csc(SC3=C(C(=O)O)N4C(=O)[C@H]([C@@H](C)O)[C@H]4[C@H]3C)n2)CN1", "note": "[SM, (4R,5S,6S)-6-[(1R)-1-Hydroxyethyl]-4-methyl-3-({4-[(5S)-5-methyl-2,5-dihydro-1H-pyrrol-3-yl]-1,3-thiazol-2-yl}sulfanyl)-7-oxo-1-azabicyclo[3.2.0]hept-2-ene-2-carboxylic acid]", "values": [{"measurement": "MIC", "setting": "S. aureus 209P; Concomitant (PIPC:SM = 1:1), S. aureus 209P, read-out: MIC concomitant", "result": 0.004, "unit": "µg/mL"}, {"measurement": "MIC", "setting": "S. aureus 209P; Concomitant drug (MEPM:SM = 2:1), read-out: MIC", "result": "≤ 0.008", "unit": "µg/mL"}, {"measurement": "MIC", "setting": "S. aureus 209P; alone, read-out: MIC", "result": "≤ 0.008", "unit": "µg/mL"}, {"measurement": "MIC", "setting": "S. aureus 209P; drug alone, S. aureus 209P, read-out: MIC alone", "result": 0.008, "unit": "µg/mL"}, {"measurement": "MIC alone", "setting": "S. aureus 209P; drug alone, S. aureus 209P", "result": 0.004, "unit": "µg/mL"}, {"measurement": "MIC", "setting": "E. aerogenes ATCC13048; ATCC13048, Concomitant (AZT:SM = 1:1), E. aerogenes ATCC13048, read-out: MIC concomitant", "result": 8, "unit": "µg/mL"}, {"measurement": "MIC", "setting": "E. aerogenes ATCC13048; ATCC13048, Concomitant (BIPM:SM = 1:1), E. aerogenes ATCC13048, read-out: MIC concomitant", "result": 0.063, "unit": "µg/mL"}, {"measurement": "MIC", "setting": "E. aerogenes ATCC13048; ATCC13048, Concomitant (CAZ:SM = 1:1), E. aerogenes ATCC13048, read-out: MIC concomitant", "result": 8, "unit": "µg/mL"}, {"measurement": "MIC", "setting": "E. aerogenes ATCC13048; ATCC13048, Concomitant (CPFX:SM = 1:1), E. aerogenes ATCC13048, read-out: MIC concomitant", "result": 0.031, "unit": "µg/mL"}, {"measurement": "MIC", "setting": "E. aerogenes ATCC13048; ATCC13048, Concomitant (DRPM:SM = 1:1), E. aerogenes ATCC13048, read-out: MIC concomitant", "result": 0.031, "unit": "µg/mL"}, {"measurement": "MIC", "setting": "E. aerogenes ATCC13048; ATCC13048, Concomitant (IPM:SM = 1:1), read-out: MIC", "result": 0.125, "unit": "µg/mL"}, {"measurement": "MIC", "setting": "E. aerogenes ATCC13048; ATCC13048, Concomitant (MEPM:SM = 1:1), read-out: MIC", "result": "≤ 0.016", "unit": "µg/mL"}, {"measurement": "MIC", "setting": "E. aerogenes ATCC13048; ATCC13048, Concomitant (MEPM:SM = 1:2), read-out: MIC", "result": 0.063, "unit": "µg/mL"}, {"measurement": "MIC", "setting": "E. aerogenes ATCC13048; ATCC13048, Concomitant (MEPM:SM = 1:4), read-out: MIC", "result": 0.125, "unit": "µg/mL"}, {"measurement": "MIC", "setting": "E. aerogenes ATCC13048; ATCC13048, Concomitant (PAPM:SM = 1:1), E. aerogenes ATCC13048, read-out: MIC concomitant", "result": 0.25, "unit": "µg/mL"}, {"measurement": "MIC", "setting": "E. aerogenes ATCC13048; ATCC13048, Concomitant (PIPC:SM = 1:1), E. aerogenes ATCC13048, read-out: MIC concomitant", "result": 8, "unit": "µg/mL"}, {"measurement": "MIC", "setting": "E. aerogenes ATCC13048; ATCC13048, Concomitant drug (MEPM:SM = 2:1), read-out: MIC", "result": 0.016, "unit": "µg/mL"}, {"measurement": "MIC", "setting": "E. aerogenes ATCC13048; ATCC13048, alone, read-out: MIC", "result": 8, "unit": "µg/mL"}, {"measurement": "MIC", "setting": "E. aerogenes ATCC13048; ATCC13048, drug alone, E. aerogenes ATCC13048, read-out: MIC alone", "result": 8, "unit": "µg/mL"}, {"measurement": "MIC", "setting": "S. maltophilia IID1275; IID1275, Concomitant (AZT:SM = 1:1), S. maltophilia IID1275, read-out: MIC concomitant", "result": "> 32", "unit": "µg/mL"}, {"measurement": "MIC", "setting": "S. maltophilia IID1275; IID1275, Concomitant (BIPM:SM = 1:1), S. maltophilia IID1275, read-out: MIC concomitant", "result": "> 32", "unit": "µg/mL"}, {"measurement": "MIC", "setting": "S. maltophilia IID1275; IID1275, Concomitant (CAZ:SM = 1:1), S. maltophilia IID1275, read-out: MIC concomitant", "result": "> 32", "unit": "µg/mL"}, {"measurement": "MIC", "setting": "S. maltophilia IID1275; IID1275, Concomitant (CPFX:SM = 1:1), S. maltophilia IID1275, read-out: MIC concomitant", "result": 1, "unit": "µg/mL"}, {"measurement": "MIC", "setting": "S. maltophilia IID1275; IID1275, Concomitant (DRPM:SM = 1:1), S. maltophilia IID1275, read-out: MIC concomitant", "result": "> 32", "unit": "µg/mL"}, {"measurement": "MIC", "setting": "S. maltophilia IID1275; IID1275, Concomitant (IPM:SM = 1:1), read-out: MIC", "result": "> 32", "unit": "µg/mL"}, {"measurement": "MIC", "setting": "S. maltophilia IID1275; IID1275, Concomitant (MEPM:SM = 1:1), read-out: MIC", "result": "> 32", "unit": "µg/mL"}, {"measurement": "MIC", "setting": "S. maltophilia IID1275; IID1275, Concomitant (MEPM:SM = 1:2), read-out: MIC", "result": "> 64", "unit": "µg/mL"}, {"measurement": "MIC", "setting": "S. maltophilia IID1275; IID1275, Concomitant (MEPM:SM = 1:4), read-out: MIC", "result": "> 128", "unit": "µg/mL"}, {"measurement": "MIC", "setting": "S. maltophilia IID1275; IID1275, Concomitant (PAPM:SM = 1:1), S. maltophilia IID1275, read-out: MIC concomitant", "result": "> 32", "unit": "µg/mL"}, {"measurement": "MIC", "setting": "S. maltophilia IID1275; IID1275, Concomitant (PIPC:SM = 1:1), S. maltophilia IID1275, read-out: MIC concomitant", "result": "> 32", "unit": "µg/mL"}, {"measurement": "MIC", "setting": "S. maltophilia IID1275; IID1275, Concomitant drug (MEPM:SM = 2:1), read-out: MIC", "result": "> 16", "unit": "µg/mL"}, {"measurement": "MIC", "setting": "S. maltophilia IID1275; IID1275, drug alone, S. maltophilia IID1275, read-out: MIC alone", "result": "> 32", "unit": "µg/mL"}, {"measurement": "MIC", "setting": "B. subtilis ATCC6633; ATCC6633, Concomitant (AZT:SM = 1:1), B. subtilis ATCC6633, read-out: MIC concomitant", "result": "≤ 0.002", "unit": "µg/mL"}, {"measurement": "MIC", "setting": "B. subtilis ATCC6633; ATCC6633, Concomitant (BIPM:SM = 1:1), B. subtilis ATCC6633, read-out: MIC concomitant", "result": "≤ 0.002", "unit": "µg/mL"}, {"measurement": "MIC", "setting": "B. subtilis ATCC6633; ATCC6633, Concomitant (CAZ:SM = 1:1), B. subtilis ATCC6633, read-out: MIC concomitant", "result": "≤ 0.002", "unit": "µg/mL"}, {"measurement": "MIC", "setting": "B. subtilis ATCC6633; ATCC6633, Concomitant (CPFX:SM = 1:1), B. subtilis ATCC6633, read-out: MIC concomitant", "result": 0.004, "unit": "µg/mL"}, {"measurement": "MIC", "setting": "B. subtilis ATCC6633; ATCC6633, Concomitant (DRPM:SM = 1:1), B. subtilis ATCC6633, read-out: MIC concomitant", "result": "≤ 0.002", "unit": "µg/mL"}, {"measurement": "MIC", "setting": "B. subtilis ATCC6633; ATCC6633, Concomitant (IPM:SM = 1:1), read-out: MIC", "result": "≤ 0.002", "unit": "µg/mL"}, {"measurement": "MIC", "setting": "B. subtilis ATCC6633; ATCC6633, Concomitant (MEPM:SM = 1:1), read-out: MIC", "result": "≤ 0.016", "unit": "µg/mL"}, {"measurement": "MIC", "setting": "B. subtilis ATCC6633; ATCC6633, Concomitant (MEPM:SM = 1:2), read-out: MIC", "result": "≤ 0.031", "unit": "µg/mL"}, {"measurement": "MIC", "setting": "B. subtilis ATCC6633; ATCC6633, Concomitant (MEPM:SM = 1:4), read-out: MIC", "result": "≤ 0.063", "unit": "µg/mL"}, {"measurement": "MIC", "setting": "B. subtilis ATCC6633; ATCC6633, Concomitant (PAPM:SM = 1:1), B. subtilis ATCC6633, read-out: MIC concomitant", "result": "≤ 0.002", "unit": "µg/mL"}, {"measurement": "MIC", "setting": "B. subtilis ATCC6633; ATCC6633, Concomitant (PIPC:SM = 1:1), B. subtilis ATCC6633, read-out: MIC concomitant", "result": "≤ 0.002", "unit": "µg/mL"}, {"measurement": "MIC", "setting": "B. subtilis ATCC6633; ATCC6633, Concomitant drug (MEPM:SM = 2:1), read-out: MIC", "result": "≤ 0.008", "unit": "µg/mL"}, {"measurement": "MIC", "setting": "B. subtilis ATCC6633; ATCC6633, alone, read-out: MIC", "result": "≤ 0.008", "unit": "µg/mL"}, {"measurement": "MIC", "setting": "B. subtilis ATCC6633; ATCC6633, drug alone, B. subtilis ATCC6633, read-out: MIC alone", "result": 0.004, "unit": "µg/mL"}]}]}
